# Test results from patent publication US11471507B2, “HMGB1 antagonist” (THE FEINSTEIN INSTITUTES FOR MEDICAL RESEARCH, priority 2019, dated 2022).
# Several values for one entry are separate records, joined by “and”; a condition that tells them apart may be missing. Identical values can stand only once. Entries after “also recorded” stand apart in the source; their conditions may differ. Like-named read-outs stand apart in the source and are kept apart here. Marks after values point to notes of the source that are not given here.
# Legend:
# [1] = tested on: APAP-induced liver injury; assay: APAP-induced liver injury model; assay type: in vivo, male C57BL/6 mice
# [2] = tested on: HMGB1-induced TNF release; assay: HMGB1-induced TNF release in human primary macrophages (ELISA); assay type: cell-based; settings: FIG. 17A
# Method: For all of these studies, TNF released was measured using an ELISA.
# [3] = Single-dose tolerability; assay type: in vivo; settings: single-dose studies
# [4] = in vivo; settings: male, Sprague-Dawley, rat; for AUC(0-inf): iv, 1 mg/kg
# [5] = Pharmacokinetics after intravenous administration in rats (LC-MS)
# [6] = tested on: cecal ligation and puncture-sepsis; assay: Cecal ligation and puncture (CLP) sepsis; assay type: in vivo; settings: male C57BL/6 mice; 500 μg/mouse IP once a day for 3 days starting 24 hours post CLP; n=15
# [7] = tested on: DAMPs-induced TNF secretion (CIRP, SAA, PEDF, HSP 70, HSP90, H2A); assay: DAMPs-induced TNF secretion in human macrophages; assay type: cell-based; settings: 16 hours
# [8] = tested on: F11 cells; assay: Disulfide HMGB1-induced calcium influx in F11 cells; assay type: cell-based; settings: relative fluorescent intensity; most inhibition at 50 μg/ml
# Text: These studies all measured relative fluorescent intensity with FIG. 30C which included the largest amount of […]
# [9] = tested on: CCI-induced neuropathic pain; assay: Chronic constriction injury of the sciatic nerve (CCI) neuropathic pain; parameters: species or system male Wistar rats; settings: rat, in vivo
# [10] = tested on: PAMPs-induced TNF release (LPS, PGN, AGE, Poly I:C); assay: PAMPs-induced TNF release in human macrophages; assay type: cell-based; settings: LPS 4 ng/ml, poly I:C 50 μg/ml, PGN 5 μg/ml, S100A12 50 μg/ml; 16 hours
# [11] = in vivo
# [12] = tested on: CCI-induced neuropathic pain; assay: Chronic constriction injury of the sciatic nerve (CCI) neuropathic pain; assay type: in vivo, male Wistar rats; settings: for Paw Withdrawal Latency: CCI
# Method: The CCI rats each received surgery. […] Mechanical and thermal sensitivity tests were also performed over time. Hargreaves Thermal Hypersensitivity test was administered to the rats as well as Von Frey mechanical hypersensitivity test.
# Rats (male Wistar, 150-180 gm, n=6/group) had CCI surgery. […] Two weeks after surgery, thermal (Hargreaves) or mechanical (von Frey) hypersensitivity was assessed. *: P<0.05 vs. PBS group. […]
# [13] = Solubility of K883; assay type: physicochemical
# Text: This provides the basis for developing intravenous (IV) formulation that will serve as a benchmark for developing oral (PO) formulations.
# [14] = tested on: STZ-induced diabetes; assay: STZ-induced diabetes; assay type: in vivo, mice; settings: 500 μg/mouse repetitive administration; vs PBS
# Method: Mice were administered repetitive administration of […] (500 μg/mouse). […] Repetitive administration of […] was therefore shown to be beneficial in STZ-induced diabetes. […] (*: P<0.05 vs. PBS group. N=6-8 mice per group).
# [15] = tested on: cecal ligation and puncture-sepsis; settings: male C57BL/6 mice; 50 or 500 μg/mouse IP once a day for 4 days starting 24 hours post CLP; n=20; comparative data; cited from earlier work
# [16] = tested on: liver ischemia and reperfusion injury; settings: 500 μg/mouse IP at time of I/R surgery; 6 hours; vs vehicle; cited from earlier work
# [17] = tested on: APAP-induced liver injury; settings: comparative data, cited from earlier work
smiles,measurement,setting,value
NC(=O)N(CCC(=O)O)NC(=O)[C@H](CO)NC(=O)[C@H](CO)NC(=O)N(N)Cc1ccccc1 [K883],serum ALT,"[1]; 50 ugs/mouse, vs vehicle controls",reduced serum ALT
same,liver necrosis (H&E histology),"[1]; APAP 350 mg/kg IP, K883 50 μg/mouse IP at 2 and 7 hours post-APAP, 24 hours, vs vehicle",reduced liver necrosis
same,mice surviving the toxicity of APAP (2 weeks),"[1]; APAP 400 mg/kg, 50 μg/mouse IP once-a-day for 5 days starting 2 hours post-APAP, 8 in the control group",14 mice out of 15
same,HMGB1-induced TNF secretion,[2],inhibition
same,tolerability,[3],well-tolerated
same,AUC(0-inf),[4]; Mean,3780 ng·h/mL
same,AUC(0-inf),[4]; individual rats,3810 ng·h/mL
same,half-life,[4]; serum half-life,> 60 min
same,"AUClast, individual rats","[5]; IV 1 mg/kg, 1 mg/kg",3772 ng·h/mL and 3807 ng·h/mL and 3749 ng·h/mL
same,"MRTlast, individual rats","[5]; IV 1 mg/kg, 1 mg/kg",32.1 min and 31.7 min and 36.4 min
same,"Vss, individual rats","[5]; IV 1 mg/kg, 1 mg/kg",0.163 L/kg
same,"t1/2, individual rats","[5]; IV 1 mg/kg, 1 mg/kg",78 min
same,"Plasma concentration, individual rats","[5]; IV 1 mg/kg, 0.50 hr, 1 mg/kg",2500 ng/mL and 3220 ng/mL
same,"Plasma concentration, individual rats","[5]; IV 1 mg/kg, 1.0 hr, 1 mg/kg",1160 ng/mL and 1300 ng/mL
same,"Plasma concentration, individual rats","[5]; IV 1 mg/kg, 2.0 hr, 1 mg/kg",130 ng/mL and 142 ng/mL
same,"Plasma concentration, individual rats","[5]; IV 1 mg/kg, 4.0 hr, 1 mg/kg",15.1 ng/mL and 17.7 ng/mL
same,"Plasma concentration, individual rats","[5]; IV 1 mg/kg, 6.0 hr, 1 mg/kg",4.04 ng/mL and 4.77 ng/mL
same,"Plasma concentration, individual rats","[5]; IV 1 mg/kg, 8.0 hr",2.01 ng/mL
same,"Plasma concentration, individual rats","[5]; IV 1 mg/kg, 8.0 hr, 1 mg/kg",0.871 ng/mL and 1.68 ng/mL
same,"AUClast, Mean","[5]; IV 1 mg/kg, mean of 3 rats",3776 ng·h/mL
same,"MRTlast, Mean","[5]; IV 1 mg/kg, mean of 3 rats",33.4 min
same,half-life,"[5]; male, Sprague-Dawley, rat, in vivo, 1 mg/kg, in vivo half-life (T½)",> 60 min
same,AUC(0-inf),"[5]; male, Sprague-Dawley, rat, in vivo, iv, 1 mg/kg",3780 ng·h/mL
same,concentration at 0.5 hr,"[5]; male, Sprague-Dawley, rat, in vivo, iv, 1 mg/kg, Plasma concentration, Mean, IV 1 mg/kg, 0.50 hr, mean of 3 rats",2910 ng/mL
same,concentration at 1 hr,"[5]; male, Sprague-Dawley, rat, in vivo, iv, 1 mg/kg, Plasma concentration, Mean, IV 1 mg/kg, 1.0 hr, mean of 3 rats",1090 ng/mL
same,concentration at 2 hr,"[5]; male, Sprague-Dawley, rat, in vivo, iv, 1 mg/kg, Plasma concentration, Mean, IV 1 mg/kg, 2.0 hr, mean of 3 rats",135 ng/mL
same,concentration at 4 hr,"[5]; male, Sprague-Dawley, rat, in vivo, iv, 1 mg/kg, Plasma concentration, Mean, IV 1 mg/kg, 4.0 hr, mean of 3 rats",16.6 ng/mL
same,concentration at 6 hr,"[5]; male, Sprague-Dawley, rat, in vivo, iv, 1 mg/kg, Plasma concentration, Mean, IV 1 mg/kg, 6.0 hr, mean of 3 rats",5.1 ng/mL
same,concentration at 8 hr,"[5]; male, Sprague-Dawley, rat, in vivo, iv, 1 mg/kg, Plasma concentration, Mean, IV 1 mg/kg, 8.0 hr, mean of 3 rats",1.52 ng/mL
same,concentration at 0.5 hr,"[5]; male, Sprague-Dawley, rat, in vivo, iv, 1 mg/kg, Plasma concentration, individual rats, IV 1 mg/kg, 0.50 hr",3020 ng/mL
same,concentration at 1 hr,"[5]; male, Sprague-Dawley, rat, in vivo, iv, 1 mg/kg, Plasma concentration, individual rats, IV 1 mg/kg, 1.0 hr",814 ng/mL
same,concentration at 2 hr,"[5]; male, Sprague-Dawley, rat, in vivo, iv, 1 mg/kg, Plasma concentration, individual rats, IV 1 mg/kg, 2.0 hr",133 ng/mL
same,concentration at 4 hr,"[5]; male, Sprague-Dawley, rat, in vivo, iv, 1 mg/kg, Plasma concentration, individual rats, IV 1 mg/kg, 4.0 hr",17 ng/mL
same,concentration at 6 hr,"[5]; male, Sprague-Dawley, rat, in vivo, iv, 1 mg/kg, Plasma concentration, individual rats, IV 1 mg/kg, 6.0 hr",6.49 ng/mL
same,sepsis lethality (survival 2 weeks),[6],protects against sepsis lethality
same,TNF secretion induced by other DAMPs,[7],not inhibited
same,disulfide HMGB1-induced calcium influx,[8],inhibit disulfide hmgb1-induced calcium influx
same,"CCI-induced CXCL1, TNF and IL-1β expression (spine)",[9],"reduce CCI-induced CSCL1, TNF and IL-1β expression"
same,CCI-induced CXCL1 and TNF expression (DRGs),[9],reduce CCI-induced CSCL1 and TNF expression
same,PAMPs-induced TNF release,[10],failed to inhibit other PAMPS; also recorded: does not inhibit other PAMPs
same,oral bioavailability,[11],low oral bioavailability
same,CCI-induced thermal and mechanical hypersensitivity,"[12]; 800 μg/rat IP once a day for 3 days, Hargreaves, von Frey",ameliorated both mechanical and thermal hypersensitivity; also recorded: improved CCI-induced thermal and mechanical hypersensitivity
same,tolerance to repeated treatment,[12]; 800 μg/rat IP once daily for three days,did not develop tolerance
same,paw withdrawal,"[12]; CCI rat model, vehicle 3.73+/−0.58 (SD)",5.45 ± 0.98 s
same,Paw Withdrawal Latency,[12]; 0 hours post treatment,4.1 ± 1.0 s
same,Paw Withdrawal Latency,[12]; 2 hours post treatment,4.3 ± 1.2 s
same,Paw Withdrawal Latency,[12]; 6 hours post treatment,6.0 ± 0.6* sec
same,Paw Withdrawal Latency,[12]; 24 hours post treatment,5.0 ± 0.5 s
same,solubility,"[13]; aqueous with cosolvent or surfactant or cyclodextrin, PBS:PEG 300:propylene glycol:polysorbate 80 at 50:40:5:5, preliminary evidence, read-out: solubility in excipient mixture",> 5000 µg/mL
same,solubility,"[13]; water, read-out: solubility in water",< 100 µg/mL
same,hyperglycemia,[14],delays hyperglycemia
same,insulitis,[14],reduces insulitis
same,weight gain,[14],improves weight gain
NC(=O)[C@H](CCC(=O)O)NC(=O)[C@H](CO)NC(=O)[C@H](CO)NC(=O)[C@@H](N)Cc1ccccc1 [P5779],sepsis lethality (survival 2 weeks),[15],protects against sepsis lethality
same,Serum levels of ALT and AST,[16],reduced
same,serum ALT,[17]; 500 ugs/mouse,significant reductions in ALT
same,liver necrosis (H&E histology),"[17]; APAP 350 mg/kg IP, P5779 50 or 500 μg/mouse IP at 2 and 7 hours, vs scrambled control peptide",reduced liver necrosis
same,Percent survival (2 weeks) post-APAP,"[17]; APAP 400 mg/kg, 500 μg/mouse IP once a day for 5 days, n=30",significantly improved
